Results taken from patent US20240269298A1, “PHOSPHONYL DERIVATIVE, AND COMPOSITION AND PHARMACEUTICAL APPLICATION THEREOF” (XIZANG HAISCO PHARMACEUTICAL CO., LTD., priority 2021, published 2024).
Read-outs that look alike come from different tables or passages of the source.

Legend:
[1] = system: NCI-H1975 (EGFR-L858R-T790M) cells; assay: Inhibitory activity on proliferation of NCI-H1975 (EGFR-L858R-T790M) cells (CTG, 72 h); type: cell-based; details: Homo sapiens
How it was run: (§1)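 Cells plated at 1000/well (NCI-H1975, RPMI1640+10% FBS) or 3000/well (A431, DMEM+10% FBS), dosed next day with compounds (0.1% DMSO final) for 72 h at 37 °C, 5% CO2. Viability by CTG luminescence, normalised to vehicle control; IC50 from nonlinear-regression dose-survival curves.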

A431 (EGFR-WT) cells = assay: Inhibitory activity on proliferation of A431 (EGFR-WT) cells (CTG, 72 h); type: cell-based; details: Homo sapiens, A-431
How it was run: as §1

[2] = system: NCI-H1975 EGFR-L858R-T790M-C797S cells; assay: Inhibitory activity on proliferation of NCI-H1975 EGFR-L858R-T790M-C797S cells (CellTiter-Glo, 72 h); type: cell-based; details: Homo sapiens
How it was run: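 Cells (1500/well) exposed to graded compound concentrations for 72 h at 37 °C in hygromycin-free RPMI1640 + 10% FBS, 0.1% DMSO vehicle. Viability by CellTiter-Glo luminescence relative to vehicle; IC50 from nonlinear sigmoidal dose-survival fit.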

[3] = Pharmacokinetic test in mice; type: in vivo; details: male, ICR, mouse, po, administration i.g. (10 mg/kg), plasma
How it was run: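 Male ICR mice (20-25 g), fasted 12-14 h before dosing and fed 4 h after, received a single intravenous or intragastric dose. Orbital plasma sampled from 0 to 24 h (5 min-24 h points); LC-MS/MS quantitation for PK parameters and bioavailability.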

[4] = target: T1, EGFR protein in NCI-H1975 EGFR-L858R-T790M-C797S cells (Homo sapiens, UniProt P00533, C797S/L858R/T790M); assay: Degradation activity on EGFR protein in NCI-H1975 EGFR-L858R-T790M-C797S cells, Method II (western blot, 48 h); type: cell-based; details: 48 h incubation, EGFR protein relative to DMSO control
T1 construct: expressed in transfected cells; host or cells: NCI-H1975 EGFR-L858R-T790M-C797S (kept under hygromycin selection)
T1 sequence (P00533 25-1210 T790M/C797S/L858R): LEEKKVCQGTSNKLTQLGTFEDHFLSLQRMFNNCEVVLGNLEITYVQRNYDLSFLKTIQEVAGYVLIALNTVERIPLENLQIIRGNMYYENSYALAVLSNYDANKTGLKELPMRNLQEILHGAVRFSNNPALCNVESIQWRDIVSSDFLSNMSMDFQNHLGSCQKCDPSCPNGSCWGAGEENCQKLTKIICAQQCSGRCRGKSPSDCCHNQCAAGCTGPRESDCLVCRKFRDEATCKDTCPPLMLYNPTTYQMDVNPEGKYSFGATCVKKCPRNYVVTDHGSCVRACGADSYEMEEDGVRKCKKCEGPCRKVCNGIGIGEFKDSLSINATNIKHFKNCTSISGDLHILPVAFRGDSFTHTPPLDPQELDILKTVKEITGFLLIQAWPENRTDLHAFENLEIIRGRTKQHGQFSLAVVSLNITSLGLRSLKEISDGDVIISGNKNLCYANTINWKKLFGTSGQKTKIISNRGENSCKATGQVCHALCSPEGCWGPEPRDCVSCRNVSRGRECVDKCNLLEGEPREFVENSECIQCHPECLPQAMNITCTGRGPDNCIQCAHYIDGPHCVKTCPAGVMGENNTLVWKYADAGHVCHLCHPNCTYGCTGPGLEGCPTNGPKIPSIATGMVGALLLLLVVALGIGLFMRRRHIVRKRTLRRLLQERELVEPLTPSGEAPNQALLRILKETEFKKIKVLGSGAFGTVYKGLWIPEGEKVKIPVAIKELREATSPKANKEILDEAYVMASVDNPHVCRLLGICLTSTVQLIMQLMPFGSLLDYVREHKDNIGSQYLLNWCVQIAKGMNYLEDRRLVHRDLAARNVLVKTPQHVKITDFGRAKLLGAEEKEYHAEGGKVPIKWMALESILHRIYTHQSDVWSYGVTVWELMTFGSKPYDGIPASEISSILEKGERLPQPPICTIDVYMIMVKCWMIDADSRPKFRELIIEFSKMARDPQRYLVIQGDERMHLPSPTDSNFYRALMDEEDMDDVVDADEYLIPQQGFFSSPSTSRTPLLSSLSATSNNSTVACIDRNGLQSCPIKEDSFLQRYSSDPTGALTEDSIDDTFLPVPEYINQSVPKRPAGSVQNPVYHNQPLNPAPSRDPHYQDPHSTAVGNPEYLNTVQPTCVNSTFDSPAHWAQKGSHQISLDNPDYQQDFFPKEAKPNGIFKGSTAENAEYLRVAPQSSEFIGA
Protocol: Protein sample preparation: NCI-H1975 EGFR-L858R-T790M-C797S cells were cultured in an incubator at 37° C. with 5% CO2, and the culture medium was RPMI1640+10% FBS+100 μg/mL hygromycin. The cells in the logarithmic phase were collected, and the cell suspension was adjusted to an appropriate concentration with a hygromycin-free culture medium, plated on a 6-well plate at a density of 350000 cells/well and a volume of 2 mL, and cultured overnight in an incubator at 37° C. with 5% CO2. The next day, the compounds at different concentrations were added. DMSO control wells were provided, wherein the concentration of DMSO in all wells was 0.1%. The 6-well plate was cultured in an incubator at 37° C. with 5% CO2 for 48 h, and then 30 μL of RIPA lysates (Beyotime, Cat. P0013B) containing protease inhibitors (Beyotime, Cat. P0013B) were added. The mixtures were lysed on ice for 30 min. Centrifugation was carried out at 13000 rpm/min at 4° C. for 20 minutes to collect protein supernatant samples, and protein quantification was performed by the BCA method. Western Blot detection samples were prepared.
Western blot detection: 20 μg of protein samples were added to each well, subjected to polyacrylamide gel electrophoresis and transferred to a membrane, and then diluted anti-EGFR (CST, Cat. 4267S) and […] (Kangchen, Cat. KC-5G4) antibodies were added and incubated overnight at 4° C. After washing the membrane, diluted goat anti-rabbit (Licor, Cat. 926-32211) and goat anti-mouse (Licor, Cat. 926-68070) antibodies were added and incubated in the dark for 45 min. Scanning and detection at wavelengths of 700 nm and 800 nm were performed with a far-infrared imaging system (Odyssey).
According to formula (3), the expression level of EGFR protein in the cells relative to the DMSO control group was calculated after incubation with different concentrations of compounds. wherein EGFRcompound was the fluorescence value of EGFR protein after incubation with compounds, and EGFRvehicle was the fluorescence value of EGFR protein in the DMSO control group. Using the Origin 9.2 software, the drug concentration DC50 values when the expression level of EGFR protein was 50% relative to the DMSO control group were calculated.

[5] = read-out: IC50 (value in brackets)

Row | SMILES | IC50 ([1]; read-out: IC50 (class symbol)) [nM] | IC50 [1, 5] [nM] | IC50 (A431 (EGFR-WT) cells) [nM] | IC50 ([2]; read-out: IC50 (class symbol)) [nM] | IC50 ([2]; read-out: IC50 (value)) [nM] | AUC [3] [ng·h/mL] | half-life [3] [h] | DC50 [4] [nM] | AUC(0-t) [3] [ng·h/mL]
1 | COc1cc(N2CCC(CN3CCN(c4ccc5c(c4)C(=O)N(C4CCC(=O)NC4=O)C5=O)CC3)CC2)c(-c2cnn(C)c2)cc1Nc1ncc(Br)c(Nc2ccccc2P(C)(C)=O)n1 (stereo not shown) [Compound 108, 5-(4-((1-(4-((5-bromo-4-((2-(dimethylphosphoryl)phenyl)amino)pyrimidin-2-yl)amino)-5-methoxy-2-(1-methyl-1H-pyrazol-4-yl)phenyl)piperidin-4-yl)methyl)piperazin-1-yl)-2-(2,6-dioxopiperidin-3-yl)isoindoline-1,3-dione] | < 100 | 42 | ≥ 10000 | < 200 | 135 | 71000 | 4.83 | < 100 | –
2 | COc1cc(N2CCN(C[C@H]3CCN(c4ccc5c(c4)C(=O)N(C4CCC(=O)NC4=O)C5=O)C3)CC2)c(-c2cnn(C)c2)cc1Nc1ncc(Br)c(Nc2ccc(-c3ccccc3)cc2P(C)(C)=O)n1 (stereo partly drawn) [Compound 104, 5-((R)-3-((4-(4-((5-bromo-4-((3-(dimethylphosphoryl)-[1,1′-biphenyl]-4-yl)amino)pyrimidin-2-yl)amino)-5-methoxy-2-(1-methyl-1H-pyrazol-4-yl)phenyl)piperazin-1-yl)methyl)pyrrolidin-1-yl)-2-(2,6-dioxopiperidin-3-yl)isoindoline-1,3-dione] | < 100 | 54 | ≥ 10000 | < 200 | 82 | – | – | < 100 | 47300
3 | COc1cc(N2CCN(C[C@H]3CCN(c4ccc5c(c4)C(=O)N(C4CCC(=O)NC4=O)C5=O)C3)CC2)c(-c2cnn(C)c2)cc1Nc1ncc(Br)c(Nc2ccc(-c3ccccc3F)cc2P(C)(C)=O)n1 (stereo partly drawn) [Compound 117, 5-((R)-3-((4-(4-((5-bromo-4-((3-(dimethylphosphoryl)-2′-fluoro-[1,1′-biphenyl]-4-yl)amino)pyrimidin-2-yl)amino)-5-methoxy-2-(1-methyl-1H-pyrazol-4-yl)phenyl)piperazin-1-yl)methyl)pyrrolidin-1-yl)-2-(2,6-dioxopiperidin-3-yl)isoindoline-1,3-dione] | < 100 | 51 | ≥ 10000 | < 200 | 79 | – | – | < 100 | 101000

Further lines, results first:

Row | IC50 ([1]; read-out: IC50 (class symbol)) [nM] | IC50 [1, 5] [nM] | IC50 (A431 (EGFR-WT) cells) [nM] | IC50 ([2]; read-out: IC50 (class symbol)) [nM] | IC50 ([2]; read-out: IC50 (value)) [nM] | AUC [3] [ng·h/mL] | half-life [3] [h] | DC50 [4] [nM] | AUC(0-t) [3] [ng·h/mL] | SMILES
4 | < 100 | 83 | ≥ 10000 | < 200 | 127 | – | – | < 100 | – | COc1cc(N2CCC(N3CCN(c4ccc5c(c4)C(=O)N(C4CCC(=O)NC4=O)C5=O)CC3)CC2)c(-c2cnn(C)c2)cc1Nc1ncc(Br)c(Nc2ccc(C3CC3)cc2P(C)(C)=O)n1 (stereo not shown) [Compound 112, 5-(4-(1-(4-((5-bromo-4-((4-cyclopropyl-2-(dimethylphosphoryl)phenyl)amino)pyrimidin-2-yl)amino)-5-methoxy-2-(1-methyl-1H-pyrazol-4-yl)phenyl)piperidin-4-yl)piperazin-1-yl)-2-(2,6-dioxopiperidin-3-yl)isoindoline-1,3-dione]
5 | < 100 | 61 | ≥ 10000 | < 200 | 101 | – | – | < 100 | 34700 | COc1cc(N2CCN(C[C@@H]3CCN(c4ccc5c(c4)C(=O)N(C4CCC(=O)NC4=O)C5=O)C3)CC2)c(-c2cnn(C)c2)cc1Nc1ncc(Br)c(Nc2ccc(-c3ccccc3)cc2P(C)(C)=O)n1 (stereo partly drawn) [Compound 103, 5-((S)-3-((4-(4-((5-bromo-4-((3-(dimethylphosphoryl)-[1,1′-biphenyl]-4-yl)amino)pyrimidin-2-yl)amino)-5-methoxy-2-(1-methyl-1H-pyrazol-4-yl)phenyl)piperazin-1-yl)methyl)pyrrolidin-1-yl)-2-(2,6-dioxopiperidin-3-yl)isoindoline-1,3-dione]
6 | 100 to 500 | 150 | ≥ 10000 | < 200 | 152 | 87900 | 9.49 | < 100 | – | COc1cc(N2CCC(CN3CCN(c4ccc5c(c4)C(=O)N(C4CCC(=O)NC4=O)C5=O)CC3)CC2)c(-c2cnn(C)c2)cc1Nc1ncc(Cl)c(Nc2ccc(-c3ccccc3F)cc2P(C)(C)=O)n1 (stereo not shown) [Compound 102, 5-(4-((1-(4-((5-chloro-4-((3-(dimethylphosphoryl)-2′-fluoro-[1,1′-biphenyl]-4-yl)amino)pyrimidin-2-yl)amino)-5-methoxy-2-(1-methyl-1H-pyrazol-4-yl)phenyl)piperidin-4-yl)methyl)piperazin-1-yl)-2-(2,6-dioxopiperidin-3-yl)isoindoline-1,3-dione]
